# In patent US8178506B2, “Oligomeric compounds and compositions for use in modulation of small non-coding RNAs” (Regulus Therapeutics Inc., priority 2003, dated 2012):
# In the oligonucleotide strings, read from the 5' end, every base follows the letter of its sugar. An asterisk marks phosphorothioate; unmarked linkages are phosphodiester. Other units and linkages are bracketed, terminal groups are in braces. A string of capitals states the bases alone. e = 2'-O-(2-methoxyethyl) (MOE); [5mC] = 5-methylcytosine; d = 2'-deoxy (DNA)
# How the values were obtained:
# [1] = system: T47D cells; experiment: Caspase-3 activity assay (apoptosis) in T47D cells; conditions: for Fold Increase over UTC (caspase-3 activity, apoptosis) / Fold Increase over UTC (caspase activity): T47D cells, 48 hours; for Fold Increase over UTC (caspase-3 activity, apoptosis): 200 nM oligomeric compound; for Fold Increase over UTC (caspase activity) / apoptosis in T47D cells: 200 nM; for Fold Increase over UTC (caspase activity): relative to untreated control; for apoptosis in T47D cells: caspase assay, conclusion from Tables 9-12
# [2] = system: IL-12 mRNA; experiment: IL-12 mRNA in LPS-activated primary murine macrophages; assay type: cell-based, mouse; conditions: normalized to LPS-treated cells without oligomeric compound; for IL-12 mRNA expression, −IFN % UTC: 300 nM oligomeric compound and LPS, no IFN-gamma pretreatment, single experiment; for IL-12 mRNA expression, +IFN % UTC: 300 nM oligomeric compound, stimulation with IFN-gamma and LPS, average of 2 experiments
# Description: To investigate the role of miRNAs in the immune response, oligomeric compounds of the present invention targeting miRNAs were tested for their effects upon lipopolysaccharide (LPS)-activated primary murine macrophages. Macrophages participate in the immune response, for example, in the recognition and phagocytosis of microorganisms, including bacteria. Interferon-gamma (IFN-gamma) released by helper T cells is one type of signal required for macrophage activation, and LPS can serve as an additional stimulus. LPS is a component of the gram-negative bacterial cell wall and acts as an agonist for toll-like receptor 4 (TLR4), the primary LPS receptor expressed by macrophages. The proinflammatory cytokines interleukin-12 (IL-12) and interleukin-6 (IL-6) are induced by LPS treatment of macrophages, thus the expression of the mRNAs encoding these cytokines was used to evaluate the response of macrophages to LPS following treatment with oligomeric compounds targeting miRNAs.
# Macrophages were isolated as follows. Female C57B1/6 mice (Charles River Laboratories, Wilmington, Mass.) were injected intraperitoneally with 1 ml 3% thioglycollate broth (Sigma-Aldrich, St. Louis, Mo.), and peritoneal macrophage cells were isolated by peritoneal lavage 4 days later. The cells were plated in 96-well plates at 40,000 cells/well for one hour in serum-free RPMI adjusted to contain 10 mM HEPES (Invitrogen Life Technologies, Carlsbad, Calif.), allowed to adhere, then non-adherent cells were washed away and the media was replaced with RPMI containing 10 mM HEPES, 10% FBS and penicillin/streptomycin (“complete” RPMI; Invitrogen Life Technologies, Carlsbad, Calif.).
# Oligomeric compounds were introduced into the cells using the non-liposomal transfection reagent FuGENE 6 Transfection Reagent (Roche Diagnostics Corp., Indianapolis, Ind.). Oligomeric compound was mixed with FuGENE 6 in 1 mL of serum-free RPMI to achieve a concentration of 10 μL FuGENE per 1000 nM oligomeric compound. The oligomeric compound/FuGENE complex was allowed to form at room temperature for 20 minutes. This mixture was diluted to the desired concentration of oligomeric compound by the addition of the appropriate volume of complete RPMI. The final ratio of FuGENE 6 to oligomeric compound was 1 μL of FuGENE 6 per 100 nM oligomeric compound. A volume of 100 μL of oligomeric compound/FuGENE/RPMI was added to each well of the 96-well plate in which the macrophages were cultured. Each oligomeric compound treatment was repeated in triplicate.
# Following oligomeric compound treatment, cells were stimultated with LPS. Cells were cultured in the presence of the transfection complex for approximately 24 to 28 hours at 37° C. and 5% CO2, after which the medium containing the transfection complex was removed from the cells, and complete RPMI containing 100 ng/mL LPS (Sigma-Aldrich Corp., St. Louis, Mo.) was added to the cells for a period of approximately 24 hours. Control samples included (1) cells receiving no oligomeric compound, stimulated with LPS and (2) cells receiving neither oligomeric compound nor LPS treatment.
# In another embodiment, following oligomeric compound treatment, cells were first activated by IFN-gamma, to amplify the response to LPS. Cells were cultured in the presence of the transfection complex for approximately 24 hours at 37° C. and 5% CO2, at which point the medium containing the transfection complex was removed from the cells, and complete RPMI containing 100 ng/mL recombinant mouse IFN-gamma (R&D Systems, Minneapolis, Minn.) was added to the cells. After the 4 hour treatment with INF-gamma, cells were treated with 100 ng/mL LPS for approximately 24 hours. Control samples included (1) cells receiving no oligomeric compound, stimulated with LPS and (2) cells receiving neither oligomeric compound nor LPS treatment. […]
substance,measurement,setting,value
328637 (eG*eG*eT*eT*e[5mC]*d[5mC]*dT*dA*dA*dT*dT*dA*dA*dA*d[5mC]*eA*eA*e[5mC]*e[5mC]*e[5mC]; antisense) [compound 328637],"Fold Increase over UTC (caspase-3 activity, apoptosis)",[1]; experiment of Table 11,1.0 fold
328385 (eA*eG*eT*eG*e[5mC]*dT*dA*dA*dT*dA*d[5mC]*dT*dT*d[5mC]*dT*eT*eT*e[5mC]*eA*eT; antisense) [compound 328385],"Fold Increase over UTC (caspase-3 activity, apoptosis)",[1]; experiment of Table 10,0.9 fold
328422 (antisense eG*eA*eG*eG*eA*dT*dG*dT*d[5mC]*dT*dG*dT*dG*dA*dA*eT*eA*eG*e[5mC]*e[5mC]) [compound 328422],"Fold Increase over UTC (caspase-3 activity, apoptosis)",[1]; experiment of Table 10,1.0 fold
328392 (eG*eA*eT*eT*eG*d[5mC]*dA*d[5mC]*dA*dT*d[5mC]*d[5mC]*dA*d[5mC]*dA*e[5mC]*eT*eG*eT*e[5mC]; antisense) [compound 328392],Fold Increase over UTC (caspase activity),[1],1.0
SEQ ID NO 522: gapmer of Tables 9-12 having this SEQ ID NO (antisense eA*eA*eT*eT*eG*dT*dA*dT*dG*dA*d[5mC]*dA*dT*dT*dA*eA*eA*eT*e[5mC]*eA),apoptosis in T47D cells,[1],prevent or have a protective effect from apoptosis
SEQ ID NO 495: gapmer of Tables 9-12 having this SEQ ID NO (antisense eA*e[5mC]*e[5mC]*eT*eG*dT*dG*dT*dA*dA*d[5mC]*dA*dG*d[5mC]*d[5mC]*eG*eT*eG*eT*eA),apoptosis in T47D cells,[1],prevent or have a protective effect from apoptosis
328433 (antisense e[5mC]*e[5mC]*eT*e[5mC]*e[5mC]*dT*dT*dG*dT*dG*dG*dG*d[5mC]*dA*dA*eA*eA*eT*e[5mC]*e[5mC]) [compound 328433],Fold Increase over UTC (caspase activity),[1],1.0
328395 (antisense e[5mC]*e[5mC]*e[5mC]*eA*eG*dT*dG*dG*dT*dG*dG*dG*dT*dG*dT*eG*eA*e[5mC]*e[5mC]*e[5mC]) [compound 328395],"Fold Increase over UTC (caspase-3 activity, apoptosis)",[1]; experiment of Table 10,1.0 fold
328650 (eA*eA*eT*e[5mC]*e[5mC]*dA*dT*dT*dG*dA*dA*dG*dA*dG*dG*e[5mC]*eG*eA*eT*eT; antisense) [compound 328650],"Fold Increase over UTC (caspase-3 activity, apoptosis)",[1]; experiment of Table 12,0.8 fold
328640 (eT*e[5mC]*eT*e[5mC]*e[5mC]*dT*dT*dG*dG*dG*dT*dG*dT*d[5mC]*d[5mC]*eT*e[5mC]*e[5mC]*eT*e[5mC]; antisense) [compound 328640],"Fold Increase over UTC (caspase-3 activity, apoptosis)",[1]; experiment of Table 12,0.9 fold
"GCTTTTAGAACCACTGCCTC (antisense; same sequence listed as MOE 5-10-5 gapmer and as uniform MOE, further chemistry not given here) [ISIS 328646]",apoptosis in T47D cells,[1],induce apoptosis
328407 (antisense eA*eA*eT*eG*eG*dA*dG*d[5mC]*d[5mC]*dA*dA*dG*dG*dT*dG*e[5mC]*eT*eG*e[5mC]*e[5mC]) [compound 328407],"Fold Increase over UTC (caspase-3 activity, apoptosis)",[1]; experiment of Table 11,1.2 fold
328413 (antisense eA*eA*eT*eT*eG*dT*dA*dT*dG*dA*d[5mC]*dA*dT*dT*dA*eA*eA*eT*e[5mC]*eA) [compound 328413],"Fold Increase over UTC (caspase-3 activity, apoptosis)",[1]; experiment of Table 11,0.8 fold
328409 (antisense eG*e[5mC]*eT*eA*eG*dT*dG*dA*d[5mC]*dA*dG*dG*dT*dG*d[5mC]*eA*eG*eA*e[5mC]*eA) [compound 328409],"Fold Increase over UTC (caspase-3 activity, apoptosis)",[1]; experiment of Table 10,0.7 fold
"TTGTATGGACATTTAAATCA (antisense; same sequence listed as MOE 5-10-5 gapmer and as uniform MOE, further chemistry not given here) [ISIS 328692]",apoptosis in T47D cells,[1],induce apoptosis
328638 (e[5mC]*e[5mC]*eG*eA*eG*dG*dG*dT*d[5mC]*dT*dA*dA*d[5mC]*d[5mC]*d[5mC]*eA*eG*e[5mC]*e[5mC]*e[5mC]; antisense) [compound 328638],"Fold Increase over UTC (caspase-3 activity, apoptosis)",[1]; experiment of Table 11,0.8 fold
328695 (eG*eG*eA*eT*eT*dT*dA*dA*dA*d[5mC]*dG*dG*dT*dA*dA*eA*e[5mC]*eA*eT*e[5mC]; antisense) [compound 328695],"Fold Increase over UTC (caspase-3 activity, apoptosis)",[1]; experiment of Table 11,0.8 fold
SEQ ID NO 518: gapmer of Tables 9-12 having this SEQ ID NO (antisense eG*e[5mC]*eT*eA*eG*dT*dG*dA*d[5mC]*dA*dG*dG*dT*dG*d[5mC]*eA*eG*eA*e[5mC]*eA),apoptosis in T47D cells,[1],prevent or have a protective effect from apoptosis
328648 (eA*e[5mC]*eT*eG*eA*dT*dT*d[5mC]*dA*dA*dG*dA*dG*d[5mC]*dT*eT*eT*eG*eT*eA; antisense) [compound 328648],Fold Increase over UTC (caspase activity),[1],1.1
328398 (antisense eG*e[5mC]*e[5mC]*eA*eT*dT*dG*dG*dG*dA*d[5mC]*d[5mC]*dT*dG*d[5mC]*eA*e[5mC]*eA*eG*e[5mC]) [compound 328398],"Fold Increase over UTC (caspase-3 activity, apoptosis)",[1]; experiment of Table 10,0.9 fold
"340345 (antisense GGAACUUAGCCACUGUGAA; all 2'-MOE, all phosphorothioate, methylation of C and T or U not given here) [compound 340345]","IL-12 mRNA expression, −IFN % UTC",[2],104 % UTC
same,"IL-12 mRNA expression, +IFN % UTC",[2],78 % UTC
"AATCCATTGAAGAGGCGATT (antisense; same sequence listed as MOE 5-10-5 gapmer and as uniform MOE, further chemistry not given here) [ISIS 328650]",apoptosis in T47D cells,[1],prevent or have a protective effect from apoptosis
"341811 (antisense UCCACAUGGAGUUGCUGUUACA; all 2'-MOE, all phosphorothioate, methylation of C and T or U not given here) [compound 341811]","IL-12 mRNA expression, −IFN % UTC",[2],154 % UTC
same,"IL-12 mRNA expression, +IFN % UTC",[2],88 % UTC
"341790 (antisense CGAAGGCAACACGGAUAACCUA; all 2'-MOE, all phosphorothioate, methylation of C and T or U not given here) [compound 341790]","IL-12 mRNA expression, −IFN % UTC",[2],318 % UTC
same,"IL-12 mRNA expression, +IFN % UTC",[2],84 % UTC
"341786 (antisense CGCAAGGUCGGUUCUACGGGUG; all 2'-MOE, all phosphorothioate, methylation of C and T or U not given here) [compound 341786]","IL-12 mRNA expression, −IFN % UTC",[2],266 % UTC
same,"IL-12 mRNA expression, +IFN % UTC",[2],99 % UTC
"341793 (antisense CCAUAAAGUAGGAAACACUACA; all 2'-MOE, all phosphorothioate, methylation of C and T or U not given here) [compound 341793]","IL-12 mRNA expression, −IFN % UTC",[2],202 % UTC
same,"IL-12 mRNA expression, +IFN % UTC",[2],147 % UTC
"341815 (antisense CAUCGUUACCAGACAGUGUUA; all 2'-MOE, all phosphorothioate, methylation of C and T or U not given here) [compound 341815]","IL-12 mRNA expression, −IFN % UTC",[2],190 % UTC
same,"IL-12 mRNA expression, +IFN % UTC",[2],157 % UTC
